According to patent publication US7235580B2, “Mitotic kinesin inhibitors” (Merck & Co., Inc., priority 2002, dated 2007):

Biological target: T1, human KSP motor domain (KSP(367H)) (Homo sapiens, UniProt P52732)
T1 construct: were used to amplify the motor domain and the neck linker region; made in house; host or cells: E. coli BL21 (DE3), pRSETa
T1 sequence (P52732 18-359 limits assumed): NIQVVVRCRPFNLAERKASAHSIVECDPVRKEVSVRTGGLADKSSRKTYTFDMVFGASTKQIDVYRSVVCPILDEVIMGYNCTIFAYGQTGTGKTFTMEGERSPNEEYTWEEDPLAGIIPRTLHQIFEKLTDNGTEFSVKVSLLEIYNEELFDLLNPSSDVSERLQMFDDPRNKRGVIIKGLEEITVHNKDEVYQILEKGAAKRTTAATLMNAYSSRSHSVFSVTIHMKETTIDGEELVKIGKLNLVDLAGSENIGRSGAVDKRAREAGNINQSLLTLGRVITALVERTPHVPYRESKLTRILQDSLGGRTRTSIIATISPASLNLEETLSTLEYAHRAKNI
Experiment: Kinesin ATPase In Vitro Assay
Type: biochemical
Settings: kinesin motor domain with microtubules, 1 mM ATP, 23° C.; free phosphate by quinaldine red/ammonium molybdate
From the text: I. Kinesin ATPase In Vitro Assay
Cloning and Expression of Human Poly-histidine Tagged KSP Motor Domain (KSP(367H))
Plasmids for the expression of the human KSP motor domain construct were cloned by PCR using a pBluescript full length human KSP construct (Blangy et al., Cell, vol. 83, pp 1159-1169, 1995) as a template. The N-terminal primer 5′-[…] (SEQ.ID.NO.: 1) and the C-terminal primer 5′-[…] […] (SEQ.ID.NO.: 2) were used to amplify the motor domain and the neck linker region. The PCR products were digested with AseI and XhoI, ligated into the NdeI/XhoI digestion product of pRSETa (Invitrogen) and transformed into E. coli BL21 (DE3).
Cells were grown at 37° C. to an OD600 of 0.5. After cooling the culture to room temperature expression of KSP was induced with 100 μM IPTG and incubation was continued overnight. Cells were pelleted by centrifugation and washed once with ice-cold PBS. Pellets were flash-frozen and stored −80° C.
Cell pellets were thawed on ice and resuspended in lysis buffer (50 mM K-HEPES, pH 8.0, 250 mM KCl, 0.1% Tween, 10 mM imidazole, 0.5 mM Mg-ATP, 1 mM PMSF, 2 mM benzimidine, 1× complete protease inhibitor cocktail (Roche)). Cell suspensions were incubated with 1 mg/ml lysozyme and 5 mM β-mercaptoethanol on ice for 10 minutes, followed by sonication (3×30 sec). All subsequent procedures were performed at 4° C. Lysates were centrifuged at 40,000×g for 40 minutes. Supernatants were diluted and loaded onto an SP Sepharose column (Pharmacia, 5 ml cartridge) in buffer A (50 mM K-HEPES, pH 6.8, 1 mM MgCl2, 1 mM EGTA, 10 μM Mg-ATP, 1 mM DTT) and eluted with a 0 to 750 mM KCl gradient in buffer A. Fractions containing KSP were pooled and incubated with Ni-NTA resin (Qiagen) for one hour. The resin was washed three times with buffer B (Lysis buffer minus PMSP and protease inhibitor cocktail), followed by three 15-minute incubations and washes with buffer B. Finally, the resin was incubated and washed for 15 minutes three times with buffer C (same as buffer B except for pH 6.0) and poured into a column. KSP was eluted with elution buffer (identical to buffer B except for 150 mM KCl and 250 mM imidazole). KSP-containing fractions were pooled, made 10% in sucrose, and stored at −80° C.
Microtubules are prepared from tubulin isolated from bovine brain. Purified tubulin (>97% MAP-free) at 1 mg/ml is polymerized at 37° C. in the presence of 10 μM paclitaxel, 1 mM DTT, 1 mM GTP in BRB80 buffer (80 mM K-PIPES, 1 mM EGTA, 1 mM MgCl2 at pH 6.8). The resulting microtubules are separated from non-polymerized tubulin by ultracentrifugation and removal of the supernatant. The pellet, containing the microtubules, is gently resuspended in 10 μM paclitaxel, 1 mM DTT, 50 μg/ml ampicillin, and 5 μg/ml chloramphenicol in BRB80.
The kinesin motor domain is incubated with microtubules, 1 mM ATP (1:1 MgCl2: Na-ATP), and compound at 23° C. in buffer containing 80 mM K-HEPES (pH 7.0), 1 mM EGTA, 1 mM DTT, 1 mM MgCl2, and 50 mM KCl. The reaction is terminated by a 2-10 fold dilution with a final buffer composition of 80 mM HEPES and 50 mM EDTA. Free phosphate from the ATP hydrolysis reaction is measured via a quinaldine red/ammonium molybdate assay by adding 150 μl of quench C buffer containing a 2:1 ratio of quench A:quench B. Quench A contains 0.1 mg/ml quinaldine red and 0.14% polyvinyl alcohol; quench B contains 12.3 mM ammonium molybdate tetrahydrate in 1.15 M sulfuric acid. The reaction is incubated for 10 minutes at 23° C., and the absorbance of the phospho-molybdate complex is measured at 540 nm.

| IC50 | SMILES |
| --- | --- |
| ≤ 50 µM | CN(C(=O)N1CC(c2cc(F)ccc2F)=CC1(CO)c1ccccc1)C1CCN(CCO)CC1 (stereo not drawn) [Compound 11-1, 4-(2,5-difluorophenyl)-N-[1-(2-hydroxyethyl)piperidin-4-yl]-2-(hydroxymethyl)-N-methyl-2-phenyl-2,5-dihydro-1H-pyrrole-1-carboxamide] |
| ≤ 50 µM | CN(C)C(=O)N1CC(c2cc(F)ccc2F)=CC1(CCCO)c1ccccc1 (stereo not drawn) [Compound 4-1a, 2-(3-Hydroxypropyl)-4-(2,5-difluorophenyl)-N,N-dimethyl-2-phenyl-2,5-dihydro-1H-pyrrole-1-carboxamide] |
| ≤ 50 µM | CN(C)C(=O)N1CC(c2cc(Cl)ccc2F)=CC1(CCCNS(C)(=O)=O)c1ccccc1 (stereo not drawn) [Compound 21-1, 4-(5-chloro-2-fluorophenyl)-N,N-dimethyl-2-{3-[(methylsulfonyl)amino]propyl}-2-phenyl-2,5-dihydro-1H-pyrrole-1-carboxamide] |
